Experimental data reported in ChEMBL document CHEMBL1141366, “Isolation of quinic acid derivatives and flavonoids from the aerial parts of Lactuca indica L. and their hepatoprotective activity in vitro” (Bioorg Med Chem Lett, 2007).
Activity calls are given as the source filed them. No cut-off for these calls is given here.

Columns and labels:
Hepatitis B virus [1] = assay: Hepatoprotective activity against HBV in human HepG2.2.15 cells; assay type: functional, organism-based; conditions: HepG2 2.2.15
Hepatitis B virus [2] = assay: Antiviral activity against hepatitis B virus assessed as inhibition of viral particle production; assay type: functional, organism-based

Row | SMILES | Activity (Hepatitis B virus [1]) | Activity (Hepatitis B virus [2])
1 | O=C(/C=C/c1ccc(O)c(O)c1)O[C@H]1[C@H](O)C[C@](O)(C(=O)O)C[C@H]1OC(=O)/C=C/c1ccc(O)c(O)c1 | Active | Active
2 | O=C(/C=C/c1ccc(O)c(O)c1)O[C@@H]1C[C@](O)(C(=O)O)C[C@@H](OC(=O)/C=C/c2ccc(O)c(O)c2)[C@H]1O | Active | Active
3 | O=C(/C=C/c1ccc(O)c(O)c1)O[C@@H]1C[C@](O)(C(=O)O)C[C@@H](O)[C@H]1O | Active | Active
4 | O=C(/C=C/c1ccc(O)c(O)c1)O[C@@H]1C[C@@](O)(C(=O)O)C[C@@H](O)[C@@H]1O | Active | Active
5 | O=C(/C=C/c1ccc(O)c(O)c1)O[C@@H]1[C@H](O)C[C@@](O)(C(=O)O)C[C@H]1OC(=O)/C=C/c1ccc(O)c(O)c1 | Active | Active
6 | O=C(/C=C/c1ccc(O)cc1)O[C@@H]1C[C@](O)(C(=O)O)C[C@@H](O)[C@H]1O | Active | Active
7 | O=c1c(O[C@@H]2O[C@H](CO)[C@@H](O)[C@H](O)[C@H]2O)c(-c2ccc(O)c(O)c2)oc2cc(O)cc(O)c12 | Active | Active
